Data set [1] is described as follows: Body weight (tolerability), NCI-H2122 xenograft study. In kind it is in vivo, female Hsd athymic nude mice. As to conditions: Compound A 50 or 75 mg/kg monotherapy. The procedure:
(§1) Assess antitumor efficacy of the combination of DC101 and Compound A by measuring tumor volume by three dimensional caliper measurements twice a week during the course of the study. Measure body weight twice weekly during the course of the study, as a general indicator of tolerability.
Treat female Hsd athymic nude mice (n=8) bearing NCI-H2122 xenograft tumors with Compound A by oral gavage (PO) once daily for 28 days at a dose of 50 or 75 mg/kg using 0.2 mL/dose. Administer Compound A starting after the mean tumor volumes reach approximately 150-200 mm^3 in size (day 16 after tumor implantation) and end treatment on day 43. Measure tumor volume and body weight twice a week for the duration of the treatment period.
Treat female Hsd athymic nude mice (n=8) bearing NCI-H2122 xenograft tumors with DC101 by intraperitoneal injection at a dose 20 mg/kg. Administer DC101 starting after the mean tumor volumes reach approximately 150-200 mm^3 in size (day 16 after tumor implantation) and continue twice weekly for four weeks. Measure tumor volume and body weight twice a week for the duration of the treatment period.
Treat female Hsd athymic nude mice (n=8) bearing NCI-H2122 xenograft tumors with Compound A by oral gavage (PO) once daily for 28 days at a dose of 50 or 75 mg/kg using 0.2 mL/dose and intraperitoneal inject DC101 twice weekly at a dose of 20 mg/kg. […]

Data set [2] is described as follows: Body weight (tolerability), NCI-H441 xenograft Study 1. As to conditions: baseline (day 14) versus day 42. In kind it is in vivo, female Hsd athymic nude mice. The procedure:
as §1
Treat female Hsd athymic nude mice (n=8) bearing NCI-H441 xenograft tumors with Compound A by oral gavage once daily for 28 days at a dose of 50 or 100 mg/kg using 0.2 mL/dose. Administer Compound A starting after the mean tumor volumes reach approximately 150-200 mm^3 in size (day 15 after tumor implantation) and end treatment 28 days later (on day 42). Measure tumor volume and body weight twice a week for the duration of the treatment period.
Treat female Hsd athymic nude mice (n=8) bearing NCI-H441 xenograft tumors with DC101 twice weekly for four weeks by intraperitoneal injection at doses of 10, 20 or 40 mg/kg. Administer DC101 starting after the mean tumor volumes reach approximately 150-200 mm^3 in size (day 15 after tumor implantation) and end on day 39. Measure tumor volume and body weight twice a week for the duration of the treatment period.
Treat female Hsd athymic nude mice (n=8) bearing NCI-H441 xenograft tumors with Compound A by oral gavage once daily for 28 days at a dose of 50 mg/kg using 0.2 mL/dose and intraperitoneal inject DC101 twice weekly at a dose of 20 mg/kg. […]

The test system of data set [3] is NCI-H2122 xenograft tumors. Briefly: Antitumor efficacy in NCI-H2122 xenograft model. As to conditions: Day 45. In kind it is in vivo, female Hsd athymic nude mice. The source says:
(§2) Grow the human NSCLC line NCI-H441 or NCI-H2122 in RPMI 1640 medium+10% fetal bovine serum. Harvest sub-confluent cells with trypsin and rinse twice with growth medium without serum. For subcutaneous tumors, initiate growth by subcutaneous injection of 5×10^6 cells in a 1:1 mixture of Hank's balanced salt solution (HBSS) and Matrigel (BD Bioscience, Franklin Lakes, N.J.) in the rear flank of each subject animal. When mean tumors volumes reach approximately 150-200 mm^3 in size, randomize the animals by tumor size and body weight by randomization techniques well known in the art and place into their respective treatment groups using the number of animals per group as indicated.
Capture tumor size and body weight using Web Director. Estimate tumor volume (V) by using the formula: V=0.536L×W^2 where L=larger of measured diameter and W=smaller of perpendicular diameter. Transform the tumor volume data to a log scale to equalize variance across time and treatment groups. […] Calculate relative changes in tumor volume (% T/C) using the tumor volume measurements taken nearest to the last day of dosing with Compound A, whereas the baseline tumor volume is the volume recorded on or just prior to first day of dosing. […] Tumor growth inhibition is observed in those instances where the calculated values for % T/C are less than 100% whereby greater inhibition results in smaller % T/C values. […]

Data set [4] relates to NCI-H441 xenograft tumors. Nature of the data set: Antitumor efficacy in NCI-H441 xenograft model, Study 2. It counts as in vivo, female Hsd athymic nude mice.
Text: as §2
(§3) Capture tumor size and body weight using Web Director. Estimate tumor volume (V) by using the formula: V=0.536L×W^2 where L=larger of measured diameter and W=smaller of perpendicular diameter. Transform the tumor volume data to a log scale to equalize variance across time and treatment groups. Analyze the log volume data with a two-way repeated measures analysis of variance by time and treatment using the MIXED procedures in SAS software (Version 9.3). The correlation model for the repeated measures is Spatial Power. Compare treated groups compared to the control group at each time point. Use the MIXED procedure also separately for each treatment group to calculate adjusted means and standard errors at each time point. Both analyses account for the autocorrelation within each animal and the loss of data that occurred when animals with large tumors were removed from the study early. Plot the adjusted means and standard errors for each treatment group versus time. Calculate relative changes in tumor volume (% T/C) using the tumor volume measurements taken nearest to the last day of dosing with Compound A, whereas the baseline tumor volume is the volume recorded on or just prior to first day of dosing. Calculate % T/C values using the formula % T/C=100×ΔT/ΔC, whereby T=mean tumor volume of the compound treated group, ΔT=mean tumor volume of the compound treated group minus the mean tumor volume on the baseline day, C=mean tumor volume of the control (vehicle) group, and ΔC=mean tumor volume of the control group minus the mean tumor volume on the baseline day. Tumor growth inhibition is observed in those instances where the calculated values for % T/C are less than 100% whereby greater inhibition results in smaller % T/C values. If ΔT was <0, then a tumor regression value was calculated instead of % T/C whereby % Regression=100×ΔT/Tinitial such that Tinitial=the grand mean of the tumor volume for all the treatment groups. Any negative values for % T/C listed are values for % Regression.
as §1
Formulations for Compound A and DC101: Formulate Compound A on a weekly basis in 1% hydroxyethyl cellulose (HEC) in 25 mM phosphate buffer (PB) at a pH of 2 and store at 4° C. Solubilize DC101 in phosphate buffered saline and store at 4° C.
Control Group: administer to the animals in the control group, both vehicles used for Compound A and DC101 according to the same schedules for each compound, respectively.
For the monotherapy groups, treat the animals with the desired compound as directed and with the vehicle for the compound not being dosed by following the schedule for the non-dosed compound.
Treat female Hsd athymic nude mice (n=7) bearing NCI-H441 xenograft tumors with Compound A by oral gavage (PO) once daily for 28 days at a dose of 50 or 75 mg/kg using 0.2 mL/dose. Administer Compound A starting after the mean tumor volumes reach approximately 150-200 mm^3 in size (day 36 after tumor implantation) and end treatment 28 days later (on day 63). […]

Data set [5] deals with NCI-H441 xenograft tumors. Nature of the data set: Antitumor efficacy in NCI-H441 xenograft model, Study 1. In kind it is in vivo, female Hsd athymic nude mice.
Text: as §2
as §3, with “Regression. […]” for “Regression.”

Data set [6] in a line: Body weight (tolerability), NCI-H441 xenograft Study 2. It counts as in vivo, female Hsd athymic nude mice. The procedure:
as §1
Treat female Hsd athymic nude mice (n=7) bearing NCI-H441 xenograft tumors with Compound A by oral gavage (PO) once daily for 28 days at a dose of 50 or 75 mg/kg using 0.2 mL/dose. Administer Compound A starting after the mean tumor volumes reach approximately 150-200 mm^3 in size (day 36 after tumor implantation) and end treatment 28 days later (on day 63). Measure tumor volume and body weight twice a week for the duration of the treatment period.
Treat female Hsd athymic nude mice (n=7) bearing NCI-H441 xenograft tumors with DC101 twice weekly for four weeks by intraperitoneal injection at a dose 20 mg/kg. Administer DC101 starting after the mean tumor volumes reach approximately 150-200 mm^3 in size (day 36 after tumor implantation). Measure tumor volume and body weight twice a week for the duration of the treatment period.
Treat female Hsd athymic nude mice (n=7) bearing NCI-H441 xenograft tumors with Compound A by oral gavage once daily for 28 days at a dose of 50 mg/kg or 75 mg/kg using 0.2 mL/dose and intraperitoneal inject DC101 twice weekly at a dose of 20 mg/kg. […]

For data set [7], the system named is Stage IV NSCLC. Briefly: Phase 1b study of abemaciclib in combination with ramucirumab, tumor response. It counts as in vivo, human. Details: key: PR is partial response;; SD is stable disease;; PD is progressive disease;; NDR is no data reported. As to conditions: preliminary. The procedure: This study is a multicenter, nonrandomized, open-label, dose-escalation Phase 1b study of oral dosing of [5-(4-ethyl-piperazin-1-ylmethyl)-pyridin-2-yl]-[5-fluoro-4-(7-fluoro-3-isopropyl-2-methyl-3H-benzoimidazol-5-yl)-pyrimidin-2-yl]-amine at 100 mg, 150 mg, or 200 mg every 12 (±3) hours on Days 1 through 21 of a 21-day cycle. in combination with ramucirumab administered at 10 mg/kg over a 60-minute IV infusion followed by a 1-hour observation period on Day 1 of a 21-day cycle for patients with Stage IV NSCLC.
The primary objective of this study is to evaluate the safety and tolerability of [5-(4-ethyl-piperazin-1-ylmethyl)-pyridin-2-yl]-[5-fluoro-4-(7-fluoro-3-isopropyl-2-methyl-3H-benzoimidazol-5-yl)-pyrimidin-2-yl]-amine when administered orally in combination with ramucirumab to patients with Stage IV NSCLC using Common Terminology Criteria for Adverse Events (CTCAE version 4.0, NCI 2009).
The secondary objectives of the study are to document the antitumor activity of [5-(4-ethyl-piperazin-1-ylmethyl)-pyridin-2-yl]-[5-fluoro-4-(7-fluoro-3-isopropyl-2-methyl-3H-benzoimidazol-5-yl)-pyrimidin-2-yl]-amine when given in combination with ramucirumab; to determine the pharmacokinetics (PK) of [5-(4-ethyl-piperazin-1-ylmethyl)-pyridin-2-yl]-[5-fluoro-4-(7-fluoro-3-isopropyl-2-methyl-3H-benzoimidazol-5-yl)-pyrimidin-2-yl]-amine when given in combination with ramucirumab; and to characterize changes in patient-reported pain and disease-related symptoms collected via the MD Anderson Symptom Inventory-Lung Cancer (MDASI-LC).
[5-(4-Ethyl-piperazin-1-ylmethyl)-pyridin-2-yl]-[5-fluoro-4-(7-fluoro-3-isopropyl-2-methyl-3H-benzoimidazol-5-yl)-pyrimidin-2-yl]-amine is supplied as capsules at 100 mg, 150 mg, or 200 mg for oral administration.
Ramucirumab is supplied in a sterile, preservative-free solution for infusion of ramucirumab formulated in an aqueous solution at a concentration of […] (500 mg/50-mL vial). The buffer contains 10 mM histidine, 75 mM sodium chloride, 133 mM glycine, and 0.01% polysorbate 80, pH 6.0. Ramucirumab is supplied in single-use 50-mL nominal volume glass vials.
The first dose of ramucirumab is dependent upon the patient's baseline body weight in kilograms. Subsequent doses of ramucirumab must be recalculated if there is a ≥10% change (increase or decrease) in body weight from last dose calculation; subsequent doses may be recalculated if there is a <10% change (increase or decrease) in body weight from last dose calculation.

Setting [8] is: Compound A 50 mg/kg monotherapy.
The mark [9] stands for this setting: Compound A 75 mg/kg monotherapy.
[10] abbreviates: Compound A 50 mg/kg monotherapy, end of treatment period.
[11] abbreviates: abemaciclib 150 mg every 12 hours + ramucirumab 10 mg/kg IV Day 1 of 21-day cycle, individual patients 1-3.
Setting [12] is: abemaciclib 200 mg every 12 hours + ramucirumab 10 mg/kg IV Day 1 of 21-day cycle, individual patients 4-8.

Several values for one entry are separate records, joined by “and”; a condition that tells them apart may be missing. Equal entries are not always repeated.

Regarding `CCN1CCN(Cc2ccc(Nc3ncc(F)c(-c4cc(F)c5nc(C)n(C(C)C)c5c4)n3)nc2)CC1.CS(=O)(=O)O` [Compound A, [5-(4-Ethyl-piperazin-1-ylmethyl)-pyridin-2-yl]-[5-fluoro-4-(7-fluoro-3-isopropyl-2-methyl-3H-benzoimidazol-5-yl)-pyrimidin-2-yl]-amine methanesulfonate], the “changes in relative body weight” value in data set [1] is “not statistically different from the control group”. The “maximum relative body weight loss” value came out at 2.7% in data set [2] (Compound A 50 mg/kg), 4.7% in data set [2] (Compound A 100 mg/kg), 5.5% in data set [6] (setting [8]) and 5.1% in data set [6] (setting [9]). In addition, the “% T/C” value in data set [3] (Compound A 50 mg/kg PO once daily 28 days) amounted to 64.3%; in data set [3] (Compound A 75 mg/kg PO once daily 28 days) it was 37.3%; in data set [4] (Compound A 50 mg/kg PO once daily 28 days, Day 67) it was 7.0%. Moreover, the “combined frequency for stable disease and partial response (disease control rate)” value in data set [4] (setting [8]) was 4/7; in data set [4] (setting [9]), 6/7. In addition, the “mice achieving complete regression” value in data set [4] (setting [8]) was 2/7; in data set [4] (setting [9]), 3/7. Further, in data set [4] (Compound A 75 mg/kg PO once daily 28 days, Day 67), the regression is −4.8%. Besides, the “partial response (animals)” value was 6/8 in data set [5] (setting [10]) and 8/8 in data set [5] (Compound A 100 mg/kg monotherapy, end of treatment period). The “stable disease (animals)” value in data set [5] (setting [10]) is 2/8. Moreover, in data set [5] (Compound A 100 mg/kg oral gavage once daily 28 days, study day 42), the mean percent regression is recorded as −22.8%.

With `CCN1CCN(Cc2ccc(Nc3ncc(F)c(-c4cc(F)c5nc(C)n(C(C)C)c5c4)n3)nc2)CC1` [abemaciclib, [5-(4-Ethyl-piperazin-1-ylmethyl)-pyridin-2-yl]-[5-fluoro-4-(7-fluoro-3-isopropyl-2-methyl-3H-benzoimidazol-5-yl)-pyrimidin-2-yl]-amine], in data set [7] (setting [11]), the “Overall Response” value was “SD and PR and PD”; the “Target Response” value is “SD and PR”. In data set [7] (setting [12]), the “Overall Response” value is “SD (3×) and PD and PR”; the “Target Response” value is “SD (2×) and PD and PR”.

The record behind these values is US10238656B2, “Combination therapy for cancer” (Eli Lilly and Company, priority 2014, dated 2019).
